The record followed here is patent US20100036088A1, “Selective poly-N-substituted glycine antibiotics” (priority 2008, published 2010).

Each structure is given as a SMILES string. Like-named read-outs stand apart in the source and are kept apart here. Marks after values point to notes of the source that are not given here. Square brackets hold non-standard residues; d marks the D form. Peptide text beside a SMILES is read from it. Nspe = C[C@H](NCC(=O)O)c1ccccc1; NDecylGly = CCCCCCCCCCNCC(=O)O; NPentylGly = CCCCCNCC(=O)O; Nlys = NCCCCNCC(=O)O

For one data set, the system named is E. coli. It is filed as cell-based. As to the method: (§1) Antibacterial assays. MICs were determined according to CLSI M7-A6 protocols in a 96-well microtiter plate. In test wells, 50 μL bacterial inoculum (5×10^5 CFU/ml) in Mueller-Hinton broth (MHB) was added to 50 μL peptoid solution in MHB (prepared by 1:2 serial dilutions). Positive controls contained 50 μL inoculum and 50 μL MHB without peptoid. […] MIC values reported were reproducible between three independent experimental replicates, each consisting of two parallel trials. Broad-spectrum antimicrobial susceptibility testing was performed against BSL2 pathogens by Nova Biologicals, Inc. (Conroe, Tex.).
(§2) Screening antibacterial assays. MICs were determined in 96-well microtiter plates in accordance with CLSI M7-A6 protocols. Peptoid solutions with 50 μL total volume were prepared using 2:1 serial dilutions. 50 μL of bacteria inoculum (1×10^6 CFU/mL) prepared in cation-adjusted Mueller-Hinton broth (CAMHB) was added to test wells. Control wells contained 100 μL MHB (no growth) or 50 μL inoculums with 50 μL MHB with no peptoid. […] Reported values were reproducible over three experiments, each containing two parallel trials.

The subject of a further data set is B. subtilis. Type of data set: cell-based. As to the method: as §1, §2
Data set [1] deals with Candida albicans (SC5314). Type of data set: cell-based, C. albicans. As for the experimental part:
Additionally, in order to characterize possible antifungal activity, a library of alkylated compounds was tested against C. albicans, a representative fungal strain.
Antifungal Assays. MICs were determined using the broth microdilution assay given by CLSI M27-A2 protocols. Candida albicans (SC5314) was grown on Sabouraud dextrose agar for 24 hours at 30° C. Cells were suspended in 0.145 M saline, and the cell concentration was adjusted to 3×10^6 cells/mL. After adjusting the cell concentration, the suspension was diluted 1:1000 with RPMI 1640 (with L-glutamine and without sodium bicarbonate, Invitrogen) buffered with 0.145 M 3-(N-morpholino) propanesulfonic acid (MOPS). Two-fold serial dilutions of peptoids, peptides, and amphotericin B (Calbiochem) were prepared in RPMI 1640 and mixed with an equal volume of the cell suspension in 96-well plates. The final testing concentrations for the peptoids and peptides were 0.20 to 100 μM, and concentrations for amphotericin B were 0.031 to 16 μM. Growth controls and sterility controls were also included. Plates were incubated for 48 hours at 35° C., and growth of C. albicans was inspected visually to determine the MICs. The MIC for each compound was defined as the lowest concentration with no visible fungal growth. Experiments were performed in duplicate on two separate days.

For another data set, the system named is human erythrocytes. The data set can be described thus: Hemolysis assay. As to conditions: for HD10 (10% hemolytic dose) / HD50 (50% hemolytic dose): red cells of human, 1 h. It is filed as cell-based. An outline of the steps: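 Human erythrocytes from fresh heparinised blood, 20 vol % in PBS pH 7.4, mixed 1:1 with 2-fold serial peptoid dilutions; PBS as 0% and 0.2 vol % Triton X-100 as 100% hemolysis. Incubated 1 h at 37 °C, diluted, centrifuged 1200 g for 15 min; supernatant A350 read.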

As for `CCCCCCCCCCNCC(=O)N(CCCCN)CC(=O)N(CC(=O)N(CC(=O)N(CCCCN)CC(=O)N(CC(=O)N(CC(=O)N(CCCCN)CC(=O)N(CC(=O)N(CC(N)=O)[C@@H](C)c1ccccc1)[C@@H](C)c1ccccc1)[C@@H](C)c1ccccc1)[C@@H](C)c1ccccc1)[C@@H](C)c1ccccc1)[C@@H](C)c1ccccc1` [C10-19 mer] (H-[NDecylGly][Nlys][Nspe][Nspe][Nlys][Nspe][Nspe][Nlys][Nspe][Nspe]-NH2), the “E. coli MIC” value in the data set with E. coli came out at 6.3 µM. Besides, the “B. subtilis MIC” value in the data set with B. subtilis worked out at 3.1 µM. Besides, the “C. albicans MIC” value in data set [1] (SC5314) was determined as 3.1 µM. In the data set on human erythrocytes, this compound returned an HD10 of 12 µM and an HD50 of 40 µM.

Consider `CCCCCNCC(=O)N(CCCCN)CC(=O)N(CC(=O)N(CC(=O)N(CCCCN)CC(=O)N(CC(=O)N(CC(=O)N(CCCCN)CC(=O)N(CC(=O)N(CC(N)=O)[C@@H](C)c1ccccc1)[C@@H](C)c1ccccc1)[C@@H](C)c1ccccc1)[C@@H](C)c1ccccc1)[C@@H](C)c1ccccc1)[C@@H](C)c1ccccc1` [C5-19 mer] (H-[NPentylGly][Nlys][Nspe][Nspe][Nlys][Nspe][Nspe][Nlys][Nspe][Nspe]-NH2), for which the “E. coli MIC” value in the data set with E. coli amounted to 16.3 µM. Further, in the data set on B. subtilis, the “B. subtilis MIC” value was found to be 1.0 µM. The “C. albicans MIC” value in data set [1] (SC5314) turned out to be 12.5 µM. In the data set on human erythrocytes, this compound had an HD10 of 65 µM and an HD50 of over 200 µM.

As for `C[C@@H](c1ccccc1)N(CC(N)=O)C(=O)CN(C(=O)CN(CCCCN)C(=O)CN(C(=O)CN(C(=O)CN(CCCCN)C(=O)CN(C(=O)CN(C(=O)CNCCCCN)[C@@H](C)c1ccccc1)[C@@H](C)c1ccccc1)[C@@H](C)c1ccccc1)[C@@H](C)c1ccccc1)[C@@H](C)c1ccccc1` [19 mer, H-(Nlys-Nspe-Nspe)3-NH2] (H-[Nlys][Nspe][Nspe][Nlys][Nspe][Nspe][Nlys][Nspe][Nspe]-NH2), the “E. coli MIC” value in the data set with E. coli turned out to be 25 µM. The “B. subtilis MIC” value in the data set on B. subtilis was 1.6 µM. Moreover, in data set [1] (SC5314, 48 h), the “C. albicans MIC” value is 15.6 µM. In addition, in the data set with human erythrocytes, the HD10 was 150 µM, the HD50 was over 200 µM, the “HD10 (10% hemolytic dose)” value is given as >150/>150 μM and the “HD50 (50% hemolytic dose)” value is >150/>150 μM.

Consider `CCCCCCCCCCNCC(=O)N(CCCCN)CC(=O)N(CC(=O)N(CC(=O)N(CCCCN)CC(N)=O)[C@@H](C)c1ccccc1)[C@@H](C)c1ccccc1` [C10-14 mer] (H-[NDecylGly][Nlys][Nspe][Nspe][Nlys]-NH2), for which the “E. coli MIC” value with E. coli is over 100 µM. The “B. subtilis MIC” value in the data set with B. subtilis came out at 6.3 µM. The “C. albicans MIC” value in data set [1] (SC5314) was found to be 100 µM. For the same compound, in the data set on human erythrocytes, the HD10 is given as >200/>200 μM and the HD50 is >200/>200 μM.

In the case of `CCCCCCCCCCNCC(=O)N(CCCCN)CC(=O)N(CC(=O)N(CC(=O)N(CCCCN)CC(=O)N(CC(=O)N(CC(N)=O)[C@@H](C)c1ccccc1)[C@@H](C)c1ccccc1)[C@@H](C)c1ccccc1)[C@@H](C)c1ccccc1` [C10-16 mer] (H-[NDecylGly][Nlys][Nspe][Nspe][Nlys][Nspe][Nspe]-NH2), the “E. coli MIC” value with E. coli was determined as 6.3 µM. In addition, the “B. subtilis MIC” value in the data set on B. subtilis was 1.6 µM. Besides, the “C. albicans MIC” value in data set [1] (SC5314) was 6.25 µM. Besides, in the data set on human erythrocytes, the HD10 came to 30 µM and the HD50 amounted to 80 µM.

On to `CCCCCCCCCCNCC(=O)N(CCCCN)CC(=O)N(CC(=O)N(CC(=O)N(CCCCN)CC(=O)N(CC(=O)N(CC(=O)N(CCCCN)CC(=O)N(CC(=O)N(CC(=O)N(CCCCN)CC(=O)N(CC(=O)N(CC(N)=O)[C@@H](C)c1ccccc1)[C@@H](C)c1ccccc1)[C@@H](C)c1ccccc1)[C@@H](C)c1ccccc1)[C@@H](C)c1ccccc1)[C@@H](C)c1ccccc1)[C@@H](C)c1ccccc1)[C@@H](C)c1ccccc1` [C10-1] (H-[NDecylGly][Nlys][Nspe][Nspe][Nlys][Nspe][Nspe][Nlys][Nspe][Nspe][Nlys][Nspe][Nspe]-NH2), for which the “E. coli MIC” value with E. coli was determined as 12.5 µM. Moreover, the “B. subtilis MIC” value in the data set on B. subtilis is 1.6 µM. Further, the “C. albicans MIC” value in data set [1] (SC5314) was determined as 1.6 µM. Further, in the data set with human erythrocytes, the HD10 was found to be 8 µM and the HD50 was found to be 27 µM.

For the compound `C[C@@H](c1ccccc1)N(CC(N)=O)C(=O)CN(C(=O)CN(CCCCN)C(=O)CN(C(=O)CN(C(=O)CNCCCCN)[C@@H](C)c1ccccc1)[C@@H](C)c1ccccc1)[C@@H](C)c1ccccc1` [16 mer, H-(Nlys-Nspe-Nspe)2-NH2] (H-[Nlys][Nspe][Nspe][Nlys][Nspe][Nspe]-NH2), the “E. coli MIC” value in the data set with E. coli is listed as 27* μM. The “B. subtilis MIC” value with B. subtilis was 27* μM. Further, the “C. albicans MIC” value in data set [1] (SC5314, 48 h) was over 100 µM. Moreover, in the data set with human erythrocytes, the HD10 was >220/>220 μM, the HD50 is recorded as >220/>220 μM, the “HD10 (10% hemolytic dose)” value is recorded as >220/>220 μM and the “HD50 (50% hemolytic dose)” value is >220/>220 μM.

With `CCCCCNCC(=O)N(CCCCN)CC(=O)N(CC(=O)N(CC(=O)N(CCCCN)CC(=O)N(CC(=O)N(CC(N)=O)[C@@H](C)c1ccccc1)[C@@H](C)c1ccccc1)[C@@H](C)c1ccccc1)[C@@H](C)c1ccccc1` [C5-16 mer] (H-[NPentylGly][Nlys][Nspe][Nspe][Nlys][Nspe][Nspe]-NH2), the “E. coli MIC” value in the data set on E. coli is over 200 µM. Besides, in the data set with B. subtilis, the “B. subtilis MIC” value came out at 3.1 µM. The “C. albicans MIC” value in data set [1] (SC5314) is 100 µM. Also, in the data set with human erythrocytes, the HD10 is recorded as >200/>200 μM and the HD50 is given as >200/>200 μM.

As to `CCCCCNCC(=O)N(CCCCN)CC(=O)N(CC(=O)N(CC(=O)N(CCCCN)CC(=O)N(CC(=O)N(CC(=O)N(CCCCN)CC(=O)N(CC(=O)N(CC(=O)N(CCCCN)CC(=O)N(CC(=O)N(CC(N)=O)[C@@H](C)c1ccccc1)[C@@H](C)c1ccccc1)[C@@H](C)c1ccccc1)[C@@H](C)c1ccccc1)[C@@H](C)c1ccccc1)[C@@H](C)c1ccccc1)[C@@H](C)c1ccccc1)[C@@H](C)c1ccccc1` [C5-1] (H-[NPentylGly][Nlys][Nspe][Nspe][Nlys][Nspe][Nspe][Nlys][Nspe][Nspe][Nlys][Nspe][Nspe]-NH2), the “E. coli MIC” value in the data set with E. coli was found to be 6.3 µM. In addition, the “B. subtilis MIC” value with B. subtilis came to 1.6 µM. In data set [1] (SC5314), the “C. albicans MIC” value stood at 6.3 µM. In the data set on human erythrocytes, this compound displayed an HD10 of 10 µM and an HD50 of 40 µM.
